In brackets after ≈: the same amount, converted by molar mass.
Key:
Type in all cases: cell-based
[1] = system: E. coli MG1655; experiment: MIC, 20-strain panel; settings: Escherichia coli, MG1655, A: E. coli MG1655; read-out: MIC
Description: (§1) A microdilution method in 96-well plates was used and the MIC protocol established by the Clinical Laboratory Standards Institute was followed. From a growing subculture, a 1:10000 inoculum of each strain in Luria-Bertani media was prepared and aliquoted 100 μL in 4 columns of wells, except for the top row wells, which contained 200 μL of inoculum. A solution of gyramide C2 was aliquoted into 3 of the wells containing 200 μL and DMSO was added to the 4th well. The liquid in each of wells was mixed with a multi-channel pipet and 100 μL was transferred to the next well and mixed. The 2-fold dilution was continued down the 96-well plate until 100 μL was left, which was discarded. The plates were incubated at 37° C. with shaking for 16-18 hours. The MIC was determined as the lowest concentration that inhibited growth and had no turbidity by visual inspection.
(§2) Minimum inhibitory concentrations of various gyramide compounds against 20 strains of bacteria were determined using the procedure described above.

[2] = system: Klebsiella pneumoniae subsp. pneumoniae; experiment: MIC, 20-strain panel; settings: E: Klebsiella pneumoniae subsp. pneumoniae
Description: as §1, §2

[3] = system: Staphylococcus epidermidis; experiment: MIC, 20-strain panel
Description: as §1, §2

[4] = system: Salmonella enterica subsp. enterica typhimurium; experiment: MIC, 20-strain panel; settings: F: Salmonella enterica subsp. enterica Typhimurium
Description: as §1, §2

[5] = system: E. coli JW5503 (deltolC); experiment: MIC, 20-strain panel; settings: Escherichia coli, C: E. coli JW5503 (deltolC)
Description: as §1, §2

[6] = system: Staphylococcus saprophyticus subsp. saprophyticus; experiment: MIC, 20-strain panel
Description: as §1, §2

[7] = system: Shigella flexneri; experiment: MIC, 20-strain panel; settings: G: Shigella flexneri
Description: as §1, §2

[8] = system: Streptococcus pyogenes; experiment: MIC, 20-strain panel
Description: as §1, §2

[9] = system: Streptococcus agalactiae; experiment: MIC, 20-strain panel
Description: as §1, §2

[10] = system: Staphylococcus aureus subsp. aureus; experiment: MIC, 20-strain panel; settings: H: Staphylococcus aureus subsp. aureus, read-out: MIC
Description: as §1, §2

[11] = system: Edwardsiella tarda; experiment: MIC, microdilution in 96-well plates; settings: D: Edwardsiella tarda
Description: as §1, §2

[12] = system: E. coli BW25113; experiment: MIC, microdilution in 96-well plates; settings: Escherichia coli, BW25113, B: E. coli BW25113; read-out: MIC
Description: as §1, §2

Compound | MIC [1] | MIC [2] | MIC [3] | MIC [4] | MIC [5] | MIC [6] | MIC [7] | MIC [8] | MIC [9] | MIC [10] | MIC [11] | MIC [12]
CC(C)Oc1ccc(CN2CC[C@@H](NS(=O)(=O)c3cc(S(=O)(=O)c4ccccc4)cs3)C2)cc1 [Compound 29] | > 8 µg/mL | > 8 µg/mL | > 8 µg/mL | > 8 µg/mL | > 8 µg/mL | > 8 µg/mL | > 8 µg/mL | > 8 µg/mL | > 8 µg/mL | > 8 µg/mL | > 8 µg/mL | > 8 µg/mL
Cc1c(CN2CC[C@@H](NS(=O)(=O)c3cccc(C#N)c3)C2)cnn1-c1ccccc1 [Compound 30] | > 8 µg/mL | > 8 µg/mL | > 8 µg/mL | > 8 µg/mL | > 8 µg/mL | > 8 µg/mL | > 8 µg/mL | > 8 µg/mL | > 8 µg/mL | > 8 µg/mL | > 8 µg/mL | > 8 µg/mL
CSc1ccc(CN2CC[C@@H](NS(=O)(=O)c3cccc(C#N)c3)C2)cc1 [Compound 31] | > 8 µg/mL | > 8 µg/mL | > 8 µg/mL | > 8 µg/mL | ~8 µg/mL (≈ 20.6 µM) | > 8 µg/mL | > 8 µg/mL | > 8 µg/mL | > 8 µg/mL | > 8 µg/mL | > 8 µg/mL | > 8 µg/mL
O=S(=O)(N[C@@H]1CCN(Cc2ccc(-c3cccs3)cc2)C1)c1cccc(C(F)(F)F)c1 [Compound 32] | > 8 µg/mL | > 8 µg/mL | 8 µg/mL (≈ 17.1 µM) | 8 µg/mL (≈ 17.1 µM) | 1 µg/mL (≈ 2.14 µM) | > 8 µg/mL | > 8 µg/mL | 8 µg/mL (≈ 17.1 µM) | > 8 µg/mL | > 8 µg/mL | > 8 µg/mL | > 8 µg/mL
O=S(=O)(N[C@@H]1CCN(Cc2ccc(-n3ccnn3)cc2)C1)c1cccc(OC(F)(F)F)c1 [Compound 33] | > 8 µg/mL | > 8 µg/mL | > 8 µg/mL | > 8 µg/mL | > 8 µg/mL | > 8 µg/mL | > 8 µg/mL | > 8 µg/mL | > 8 µg/mL | > 8 µg/mL | > 8 µg/mL | > 8 µg/mL
N#Cc1cccc(S(=O)(=O)N[C@@H]2CCN(Cc3nc(-c4ccccc4)cs3)C2)c1 [Compound 34] | > 8 µg/mL | > 8 µg/mL | > 8 µg/mL | > 8 µg/mL | > 8 µg/mL | > 8 µg/mL | > 8 µg/mL | > 8 µg/mL | > 8 µg/mL | > 8 µg/mL | > 8 µg/mL | > 8 µg/mL
O=S(=O)(N[C@@H]1CCN(Cc2ccc(-n3cccn3)cc2)C1)c1cccc(C(F)(F)F)c1 [Compound 35] | > 8 µg/mL | > 8 µg/mL | > 8 µg/mL | > 8 µg/mL | 1 µg/mL (≈ 2.22 µM) | > 8 µg/mL | > 8 µg/mL | > 8 µg/mL | > 8 µg/mL | > 8 µg/mL | > 8 µg/mL | > 8 µg/mL
O=S(=O)(N[C@@H]1CCN(Cc2ccc(-c3nccs3)cc2)C1)c1cccc(OC(F)(F)F)c1 [Compound 36] | > 8 µg/mL | > 8 µg/mL | > 8 µg/mL | > 8 µg/mL | 2 µg/mL (≈ 4.14 µM) | > 8 µg/mL | > 8 µg/mL | > 8 µg/mL | > 8 µg/mL | > 8 µg/mL | > 8 µg/mL | > 8 µg/mL
O=S(=O)(N[C@@H]1CCN(Cc2ccc(-c3ccccc3)cc2)C1)c1cc(S(=O)(=O)c2ccccc2)cs1 [Compound 37] | > 8 µg/mL | > 8 µg/mL | > 8 µg/mL | > 8 µg/mL | > 8 µg/mL | > 8 µg/mL | > 8 µg/mL | > 8 µg/mL | > 8 µg/mL | > 8 µg/mL | > 8 µg/mL | > 8 µg/mL
O=S(=O)(N[C@@H]1CCN(Cc2ccc(OC3CCOCC3)cc2)C1)c1cccc(C(F)(F)F)c1 [Compound 38] | > 8 µg/mL | > 8 µg/mL | > 8 µg/mL | > 8 µg/mL | 1 µg/mL (≈ 2.06 µM) | > 8 µg/mL | > 8 µg/mL | > 8 µg/mL | > 8 µg/mL | > 8 µg/mL | > 8 µg/mL | > 8 µg/mL
O=S(=O)(N[C@@H]1CCN(Cc2ccc(OC3CCOCC3)cc2)C1)c1cccc(OC(F)(F)F)c1 [Compound 39] | > 8 µg/mL | > 8 µg/mL | > 8 µg/mL | > 8 µg/mL | 1 µg/mL (≈ 2 µM) | > 8 µg/mL | > 8 µg/mL | > 8 µg/mL | > 8 µg/mL | > 8 µg/mL | > 8 µg/mL | > 8 µg/mL
N#Cc1cccc(S(=O)(=O)N[C@@H]2CCN(Cc3ccc(OC4CCCC4)cc3)C2)c1 [Compound 40] | > 8 µg/mL | > 8 µg/mL | > 8 µg/mL | 4 µg/mL (≈ 9.4 µM) | 0.5 µg/mL (≈ 1.17 µM) | > 8 µg/mL | > 8 µg/mL | > 8 µg/mL | > 8 µg/mL | > 8 µg/mL | > 8 µg/mL | > 8 µg/mL
O=S(=O)(N[C@@H]1CCN(Cc2ccc(OC3CCCC3)cc2)C1)c1cccc(C(F)(F)F)c1 [Compound 41] | > 8 µg/mL | > 8 µg/mL | 8 µg/mL (≈ 17.1 µM) | 8 µg/mL (≈ 17.1 µM) | 0.5 µg/mL (≈ 1.07 µM) | > 8 µg/mL | > 8 µg/mL | > 8 µg/mL | > 8 µg/mL | ~8 µg/mL (≈ 17.1 µM) | > 8 µg/mL | > 8 µg/mL
COc1cc(CN2CC[C@@H](NS(=O)(=O)c3cccc(C(F)(F)F)c3)C2)ccc1OC(C)C [Compound 42] | > 8 µg/mL | > 8 µg/mL | > 8 µg/mL | > 8 µg/mL | > 8 µg/mL | > 8 µg/mL | > 8 µg/mL | > 8 µg/mL | > 8 µg/mL | > 8 µg/mL | > 8 µg/mL | > 8 µg/mL
O=S(=O)(N[C@@H]1CCN(Cc2ccc(-c3ccccn3)cc2)C1)c1cccc(C(F)(F)F)c1 [Compound 43] | > 8 µg/mL | > 8 µg/mL | > 8 µg/mL | > 8 µg/mL | 0.5 µg/mL (≈ 1.08 µM) | > 8 µg/mL | > 8 µg/mL | > 8 µg/mL | > 8 µg/mL | > 8 µg/mL | > 8 µg/mL | > 8 µg/mL
CC(=O)c1cccc(S(=O)(=O)N[C@@H]2CCN(Cc3ccc(-c4ccccc4)cc3)C2)c1 [Compound 44] | > 8 µg/mL | > 8 µg/mL | > 8 µg/mL | 8 µg/mL (≈ 18.4 µM) | 0.25 µg/mL (≈ 0.575 µM) | > 8 µg/mL | > 8 µg/mL | > 8 µg/mL | > 8 µg/mL | > 8 µg/mL | > 8 µg/mL | > 8 µg/mL
O=S(=O)(N[C@@H]1CCN(Cc2ccc(OC3CCCC3)cc2)C1)c1cccc(OC(F)(F)F)c1 [Compound 45] | > 8 µg/mL | > 8 µg/mL | 8 µg/mL (≈ 16.5 µM) | > 8 µg/mL | 2 µg/mL (≈ 4.13 µM) | > 8 µg/mL | > 8 µg/mL | > 8 µg/mL | > 8 µg/mL | > 8 µg/mL | > 8 µg/mL | > 8 µg/mL
N#Cc1cccc(S(=O)(=O)N[C@@H]2CCN(Cc3ccc(-c4ccccn4)cc3)C2)c1 [Compound 46] | > 8 µg/mL | > 8 µg/mL | > 8 µg/mL | 8 µg/mL (≈ 19.1 µM) | 1 µg/mL (≈ 2.39 µM) | > 8 µg/mL | > 8 µg/mL | > 8 µg/mL | > 8 µg/mL | > 8 µg/mL | > 8 µg/mL | > 8 µg/mL
O=S(=O)(N[C@@H]1CCN(Cc2ccc(-c3ccccc3)cc2)C1)c1cc(C(F)(F)F)ccc1Cl [Compound 47] | > 8 µg/mL | > 8 µg/mL | ~8 µg/mL (≈ 16.2 µM) | ~8 µg/mL (≈ 16.2 µM) | 1 µg/mL (≈ 2.02 µM) | > 8 µg/mL | > 8 µg/mL | ~8 µg/mL (≈ 16.2 µM) | > 8 µg/mL | > 8 µg/mL | > 8 µg/mL | > 8 µg/mL
O=S(=O)(N[C@@H]1CCN(Cc2ccc(-c3ccccn3)cc2)C1)c1cccc(OC(F)(F)F)c1 [Compound 48] | > 8 µg/mL | > 8 µg/mL | > 8 µg/mL | > 8 µg/mL | 1 µg/mL (≈ 2.09 µM) | > 8 µg/mL | > 8 µg/mL | > 8 µg/mL | > 8 µg/mL | > 8 µg/mL | > 8 µg/mL | > 8 µg/mL
CC(=O)c1cccc(S(=O)(=O)N[C@@H]2CCN(Cc3ccc(OC(C)C)cc3)C2)c1 [Compound 49] | > 8 µg/mL | > 8 µg/mL | > 8 µg/mL | > 8 µg/mL | 2 µg/mL (≈ 4.8 µM) | > 8 µg/mL | > 8 µg/mL | > 8 µg/mL | > 8 µg/mL | > 8 µg/mL | > 8 µg/mL | > 8 µg/mL
